Reference: the supplement of paper PMC10307832

Key:
Assay in all cases: relative viability (nuclei count vs DMSO), 5 days (fraction); higher = more cells survive
RU-SKI 43 + Palbociclib = compound: CC[C@@H](C)CNCC(=O)N1CCC2=C([C@@H]1COC3=CC=CC(=C3)C)C=CS2 [RU-SKI 43] + CC(=O)c1c(C)c2cnc(Nc3ccc(N4CCNCC4)cn3)nc2n(C2CCCC2)c1=O [Palbociclib] (partner 0.5 µM)
How it was run: (§1)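 Relative viability is defined as nuclei in treated wells over nuclei in vehicle wells. Duplicate plates were run and medians reported. Lung cancer cell lines in 1536-well plates were dosed by pin tool one day after seeding, with one drug or with a fixed anchor-drug dose plus five library-drug doses (not always all listed) in √10 steps, and nuclei were counted after 5 days.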

RU-SKI 43 + Pictilisib = compound: CC[C@@H](C)CNCC(=O)N1CCC2=C([C@@H]1COC3=CC=CC(=C3)C)C=CS2 [RU-SKI 43] + CS(=O)(=O)N1CCN(Cc2cc3nc(-c4cccc5[nH]ncc45)nc(N4CCOCC4)c3s2)CC1 [Pictilisib] (partner 1 µM)
How it was run: as §1

Irinotecan + Lapatinib = compound: CCc1c2c(nc3ccc(OC(=O)N4CCC(N5CCCCC5)CC4)cc13)-c1cc3c(c(=O)n1C2)COC(=O)[C@]3(O)CC [Irinotecan] + CS(=O)(=O)CCNCc1ccc(-c2ccc3ncnc(Nc4ccc(OCc5cccc(F)c5)c(Cl)c4)c3c2)o1 [Lapatinib] (partner 2 µM)
How it was run: as §1

Irinotecan + Olaparib = compound: CCc1c2c(nc3ccc(OC(=O)N4CCC(N5CCCCC5)CC4)cc13)-c1cc3c(c(=O)n1C2)COC(=O)[C@]3(O)CC [Irinotecan] + O=C(c1cc(Cc2n[nH]c(=O)c3ccccc23)ccc1F)N1CCN(C(=O)C2CC2)CC1 [Olaparib] (partner 8 µM)
How it was run: as §1

Cell Line	relative viability (RU-SKI 43 + Palbociclib; first compound 0.1 µM)	relative viability (RU-SKI 43 + Palbociclib; first compound 0.3162 µM)	relative viability (RU-SKI 43 + Palbociclib; first compound 1 µM)	relative viability (RU-SKI 43 + Palbociclib; first compound 3.162 µM)	relative viability (RU-SKI 43 + Palbociclib; first compound 10 µM)	relative viability (RU-SKI 43 + Pictilisib; first compound 0.1 µM)	relative viability (RU-SKI 43 + Pictilisib; first compound 0.3162 µM)	relative viability (RU-SKI 43 + Pictilisib; first compound 1 µM)	relative viability (RU-SKI 43 + Pictilisib; first compound 3.162 µM)	relative viability (RU-SKI 43 + Pictilisib; first compound 10 µM)	relative viability (Irinotecan + Lapatinib; first compound 0.6325 µM)	relative viability (Irinotecan + Lapatinib; first compound 2 µM)	relative viability (Irinotecan + Lapatinib; first compound 6.325 µM)	relative viability (Irinotecan + Lapatinib; first compound 20 µM)	relative viability (Irinotecan + Olaparib; first compound 0.6325 µM)	relative viability (Irinotecan + Olaparib; first compound 2 µM)	relative viability (Irinotecan + Olaparib; first compound 6.325 µM)	relative viability (Irinotecan + Olaparib; first compound 20 µM)
BEN	0.489	0.468	0.523	0.46	0.451	0.642	0.546	0.791	0.528	0.584	0.542	0.418	0.244	0.338	0.681	0.53	0.425	0.528
NCI-H1993	0.611	0.727	0.697	0.748	0.613	0.718	0.597	0.769	0.964	0.719	0.802	0.76	0.671	0.458		0.601	0.552	0.585
NCI-H838	0.213	0.233	0.225	0.239	0.188	0.471	0.434	0.544	0.444	0.445	1.03	0.874	0.399	0.161	0.632	0.441	0.238	0.18
NCI-H1755	0.478	0.458	0.44	0.478	0.466	0.384	0.524	0.532	0.48	0.367	0.883	0.9	0.309	0.318	0.482	0.358	0.372	0.42
NCI-H1666	0.66	0.63	0.707	0.609	0.64	0.407	0.481	0.377	0.331	0.2	0.466	0.556	0.35	0.223	0.672	0.726	0.654	0.671
NCI-H2085	0.514	0.444	0.467	0.48	0.461	0.476	0.353	0.473	0.409	0.469	0.592	0.608	0.473	0.515	0.583	0.433	0.423	0.408
COR-L23	0.288	0.241	0.311	0.357	0.277	0.754	0.756	0.897	0.986	0.738	0.383	0.378	0.177	0.121	0.162	0.215	0.191	0.0964
NCI-H647	0.472	0.371	0.382	0.471	0.287	0.392		0.547	0.428	0.412	0.865	0.44	0.199	0.138	0.194	0.205	0.14	0.0986
NCI-H1793	0.331	0.222	0.326	0.336	0.27	0.396	0.411	0.479	0.318	0.31		0.547	0.253	0.235		0.528	0.173	0.209
